Here are results for eleven compounds from patent publication US9622988B2, “Small molecule xanthine oxidase inhibitors and methods of use” (Baylor College of Medicine, priority 2012, dated 2017).

The nature of data set [1]: Peroxynitrite scavenging assay. The settings on record: 20 μM (FIG. 7C). The protocol:
Peroxynitrite Scavenging Assay—Peroxynitrite (ONOO^−) was generated by mixing 5 mL acidic solution (0.6 M HCl) of H2O2 (0.7 M) and 5 mL of 0.6 M KNO2 in an ice bath for 1 second and the reaction was quenched with 5 mL of ice-cold 1.2 M NaOH. Residual H2O2 was removed using granular MnO2 prewashed with 1.2 M NaOH and the reaction mixture was then left overnight at −20° C. Concentrations of ONOO^− were determined before each experiment at 302 nm using a molar extinction coefficient of 1,670 M^−1 cm^−1. The final concentrations of reagents used in the assay are as follows: 25 μM ONOO^−, 10 μM DTPA, 5 μM DHR 123, 0.1 M phosphate buffer, pH 7.4. The ONOO^− scavenging assay was performed by monitoring the oxidation of dihydrorhodamine (DHR 123) by ONOO^− spectrophotometrically at 500 nm.

In data set [2] the target is Xanthine oxidase from bovine milk (Bos taurus, UniProt P80457). The following applies: for inhibition of XO: each compound at 20 μM (FIG. 2); for time course of inhibition of XO activity: 20 nM XO added to 50 μM xanthine and 6.67 μM inhibitor (FIG. 3).
Data set [3] is described as follows: Superoxide scavenging assay (xanthine-xanthine oxidase system, NBT). The following applies: 20 μM (FIG. 7D). The protocol:
Superoxide Scavenging Assay—Superoxide (O2^−.) scavenging activity was assayed in the xanthine-xanthine oxidase system and determined by the inhibition of the reduction of nitro blue tetrazolium (NBT) to form blue formazan which has an absorption at 560 nm. The final concentrations of reagents used in the assay are as follows: 16.8 mU xanthine oxidase, 25 μM xanthine, 50 μM NBT, and 0.1 M phosphate buffer (pH 8.5). […] The abilities of polyphenols to scavenge O2^−. were compared with that of GSH.

Data set [4] has as its system allantoxanamide induced hyperuricemic mice. Nature of the data set: Hypouricemic effect in allantoxanamide induced hyperuricemic mice. Format: in vivo, C57BL/6 mice. The settings on record: 100 mg/kg oral before 200 mg/kg allantoxanamide i.p., up to 4 hours (FIG. 13). The protocol:
A hyperuricemia mouse model was used. Allantoxanamide, a potent uricase inhibitor, was used to induce hyperuricemia in mice in this study. […] The mice were subsequently intraperitoneally injected with allantoxanamide at 200 mg/kg in 0.5% CMC-Na in a volume of 0.1 ml/10 g mouse body weight just after the tested drug oral administration to increase the serum uric acid level. […] The negative control mice were administered PEG400 only followed by i.p. allantoxanamide. The normal group mice were administered PEG400 only followed by i.p. CMC-Na only. Food and water were withheld overnight prior to the study. Whole blood samples were collected from mice through orbital vein bleeding at the end of the study. The mice were anaesthetized with diethyl ether inside a chamber. The blood was allowed to clot for 1 h at room temperature and then centrifuged at 2350×g for 4 min to obtain the serum. The serum was kept on ice and assayed immediately. Serum uric acid was determined with the phosphotungstate method, as known to those of skill in the art.

Data set [5] concerns C57BL/6 mice.
The nature of data set [6]: Antioxidant activity of polyphenols (summary). The following applies: FIG. 7.
The target in data set [7] is T1, XO (Bos taurus, UniProt P80457).
T1 construct: Xanthine oxidase from bovine milk; purchased Sigma Chemical Co. (St. Louis, Mo.); host or cells: bovine milk (natural source)
Nature of the data set: Conversion of DHNB to products by XO. The following applies: room temperature. In kind it is biochemical, bovine.

Chain of Xanthine oxidase from bovine milk (P80457 whole entry): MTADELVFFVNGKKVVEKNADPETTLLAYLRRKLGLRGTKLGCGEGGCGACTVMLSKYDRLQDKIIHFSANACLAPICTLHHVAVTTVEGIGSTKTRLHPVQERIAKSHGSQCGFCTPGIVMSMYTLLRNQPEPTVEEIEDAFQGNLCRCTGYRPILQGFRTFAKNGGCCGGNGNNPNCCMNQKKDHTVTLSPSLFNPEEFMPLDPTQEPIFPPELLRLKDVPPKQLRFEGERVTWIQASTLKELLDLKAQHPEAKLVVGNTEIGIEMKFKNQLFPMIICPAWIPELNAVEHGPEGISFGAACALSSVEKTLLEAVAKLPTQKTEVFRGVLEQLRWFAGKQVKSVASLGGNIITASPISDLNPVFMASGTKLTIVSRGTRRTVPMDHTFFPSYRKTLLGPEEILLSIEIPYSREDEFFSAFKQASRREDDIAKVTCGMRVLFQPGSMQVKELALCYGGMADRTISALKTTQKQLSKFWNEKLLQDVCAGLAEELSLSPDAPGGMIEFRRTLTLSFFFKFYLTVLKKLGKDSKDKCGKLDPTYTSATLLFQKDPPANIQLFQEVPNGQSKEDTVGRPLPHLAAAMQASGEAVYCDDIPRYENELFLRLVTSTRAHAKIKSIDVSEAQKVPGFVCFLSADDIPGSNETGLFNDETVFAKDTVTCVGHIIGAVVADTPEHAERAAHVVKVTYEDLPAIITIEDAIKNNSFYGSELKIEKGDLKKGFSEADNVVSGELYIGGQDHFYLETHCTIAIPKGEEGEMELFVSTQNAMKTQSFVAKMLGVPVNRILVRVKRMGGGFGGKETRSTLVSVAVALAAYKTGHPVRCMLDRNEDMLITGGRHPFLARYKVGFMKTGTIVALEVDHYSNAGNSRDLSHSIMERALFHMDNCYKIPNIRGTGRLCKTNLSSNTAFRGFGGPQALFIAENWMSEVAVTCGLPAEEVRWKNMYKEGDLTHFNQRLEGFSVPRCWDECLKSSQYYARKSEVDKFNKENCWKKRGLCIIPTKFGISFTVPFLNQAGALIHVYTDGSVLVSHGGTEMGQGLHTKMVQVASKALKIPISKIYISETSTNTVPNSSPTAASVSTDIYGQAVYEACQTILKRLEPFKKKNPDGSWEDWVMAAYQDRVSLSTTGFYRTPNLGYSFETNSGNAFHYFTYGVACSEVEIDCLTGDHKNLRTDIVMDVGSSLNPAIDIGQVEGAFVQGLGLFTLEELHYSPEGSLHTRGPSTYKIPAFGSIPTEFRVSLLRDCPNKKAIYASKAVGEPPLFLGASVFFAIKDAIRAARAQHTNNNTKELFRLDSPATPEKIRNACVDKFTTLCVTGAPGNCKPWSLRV
T1 sequence (P80457 whole entry): as above

Regarding `O=C(O)/C=C/c1ccc(O)c(O)c1` [caffeic acid, reference compound], the “ONOO^− scavenging effect” value in data set [1] is on record as “strong scavenging effect”. Also, the “inhibition of XO” value in data set [2] is listed as “no effect on XO”.

`O.O=Cc1cc(O)c(O)c(O)c1` [THB-CHO, 3,4,5-trihydroxybenzaldehyde hydrate]: in data set [1], the “ONOO^− scavenging effect” value is given as “strong scavenging effect”. In addition, the superoxide scavenging effect result in data set [3] is “strong scavenging effects on superoxide”. In addition, the “IC50 of XO activity inhibition” value in data set [2] (20 nM XO, 50 μM xanthine, phosphate buffer pH 7.4, 25° C.) is reported as “too high to determine”. Besides, in data set [2], the “inhibition of XO” value is “inhibitory effects on XO”.

As for `Oc1ncnc2[nH]ncc12` [allopurinol, reference compound], the “serum urate levels (hypouricemic effect)” value in data set [4] is on record as “significantly lowered the serum urate level close to the normal level”. The “pups died in two days” value in data set [5] (500 mg/kg, total 19 pups of surviving mice) is on record as “eight”. Moreover, the “antioxidant activity (scavenging of DPPH, ONOO^−, HOCl, superoxide ion)” value in data set [6] is “does not possess the antioxidant properties”. Moreover, the “time course of inhibition of XO activity” value in data set [2] is “time-dependent inhibition”.

In the case of `O=C(O)c1cc(O)c(O)c([N+](=O)[O-])c1` [3,4-dihydroxy-5-nitrobenzoic acid], in data set [7], the “inhibitory effect of the DHNB/XO product on XO” value is on record as “no inhibitory effect on XO”.

On to `O=C(O)c1ccc(O)c(O)c1` [DHB-COOH, 3,4-dihydroxybenzoic acid, reference compound], for which the “inhibition of XO” value in data set [2] was “no effect on XO”.

In the case of `O=Cc1cc(O)c(O)c([N+](=O)[O-])c1` [DHNB, 3,4-Dihydroxy-5-nitrobenzaldehyde], the “ONOO^− scavenging effect” value in data set [1] was “strong scavenging effect”. For the same compound, the “serum urate levels (hypouricemic effect)” value in data set [4] is “significantly lowered in 2 hours and maintained at a level just slightly higher than the normal level in 4 hours”. For the same compound, the “histology analysis for the liver, kidney, and heart vs control mice” value in data set [5] (mouse, in vivo) is reported as “did not show any difference”. In data set [2], the “time course of inhibition of XO activity” value is listed as “time-dependent inhibition” and the “inhibition of XO” value is given as “inhibitory effects on XO”. In data set [2] (20 μM DHNB, then GSH, DTT or 2-ME 20 mM (FIG. 5)), the “XO inhibition after treatment with reducing agents” value is recorded as “did not abolish the inhibition”. Moreover, the “initial rates with increasing xanthine concentrations (Dixon plot)” value in data set [2] (DHNB concentration fixed, 1 min pre-incubation (FIG. 1B)) was “did not change with increasing xanthine concentrations”.

As to `O=Cc1cc(O)c(O)cc1[N+](=O)[O-]` [DH6NB, 3,4-Dihydroxy-6-nitrobenzaldehyde], the “ONOO^− scavenging effect” value in data set [1] is reported as “strong scavenging effect”. For the same compound, the “inhibition of XO” value in data set [2] is listed as “inhibitory effects on XO”.

With `COc1ccc(CO)cc1OC` [DMB-CH2OH, 3,4-dimethoxybenzyl alcohol, reference compound], the “inhibition of XO” value in data set [2] is “no effect on XO”.

As for `O=C(O)c1cc(O)c(O)c(O)c1` [gallic acid, reference compound], the “ONOO^− scavenging effect” value in data set [1] is given as “strong scavenging effect”. Also, the “inhibition of XO” value in data set [2] is listed as “no effect on XO”.

As to `COc1cc(C=O)ccc1O` [Vanillin, reference compound], the “inhibition of XO” value in data set [2] is reported as “no inhibition on XO activity”.

As for `O=Cc1ccc(O)c(O)c1` [DHB-CHO, 3,4-dihydroxybenzaldehyde], the “ONOO^− scavenging effect” value in data set [1] is given as “strong scavenging effect”. Also, the “inhibition of XO” value in data set [2] is reported as “inhibitory effects on XO”.
